Eleven molecules from US9447081B2, “Substituted pyrimidines as pharmaceuticals and insecticides” (SHENYANG SINOCHEM AGROCHEMICALS R&D CO., LTD., priority 2012, dated 2016) can be followed below.

Structures are written as SMILES.

One assay deals with corn rust. The assay can be described thus: Protectant activity in vivo (whole plant), corn rust. The settings on record: Zea mays, 168 h, read-out: protectant activity against corn rust; for pest or weed control at 25 µg/mL: 25 mg/L; for pest or weed control at 100 µg/mL: 100 mg/L; for pest or weed control at 400 µg/mL: 400 mg/L; for pest or weed control at 6.25 µg/mL: 6.25 mg/L. The protocol: (§1) The method is as followed: The whole plant is used in this test. The compound is dissolved in a proper solvent to get mother solution. The proper solvent is selected from acetone, methanol, DMF and so on according to their dissolving capability to the sample. […] The testing solution is sprayed to the host plant by a special plant sprayer. The plant is inoculated with fungus after 24 hours. According to the infecting characteristic of fungus, the plant is stored in a humidity chamber and then transferred into greenhouse after infection is finished. And the other plants are placed in greenhouse directly. The activity of compound is obtained by eyeballing after 7 days in common.

The subject of assay [1] is Green peach aphids (Myzus Persicae Sulzer). The assay can be described thus: Activity against green peach aphid (airbrush foliar spray). The format is in vivo. The settings on record: death rate after 48 h; for pest or weed control at 10 µg/mL / pest or weed control at 100 µg/mL / pest or weed control at 600 µg/mL: Myzus persicae, foliar, 48 h; for pest or weed control at 10 µg/mL: 10 mg/L, read-out: Insecticidal activity against peach aphid; for pest or weed control at 100 µg/mL: 100 mg/L; for pest or weed control at 100 µg/mL / pest or weed control at 600 µg/mL: read-out: Insecticidal activity against peach aphid (control). The procedure:
(§2) Compounds were dissolved in mixed solvent (acetone:methanol=1:1), and diluted to required concentration with water containing 0.1% of tween 80.
(§3) Diamond back moth, armyworm, Green Peach Aphid and carmine spider mite were used as targets and the method of spraying by airbrush was used for determination of insecticidal biassays.
Method: Filter papers were put in culture dishes (Diameter=6 cm), and water was dripped on filter papers for preserving moisture. Green peach aphids (Myzus Persicae Sulzer) were maintained on cabbage. Leaves (Diameter=3 cm) of approximately 15-30 aphids were put in the culture dishes. Bioactivity tests were used the method of Airbrush Foliar Spray, pressure=10 psi (0.7 kg/cm2), spray volume=0.5 mL. The studies were conducted at three constant temperatures 25±1 C. in incubator cabinets with 60±5% RH. Survey the survival aphids after 48 h and calculate the death rates.

A further assay relates to wheat powdery mildew. Description: Protectant activity in vivo (whole plant), wheat powdery mildew. To be noted: for pest or weed control at 25 µg/mL: 25 mg/L; for pest or weed control at 100 µg/mL: 100 mg/L. The protocol:
as §1

For a further assay, the system named is carmine spider mite. Description: Acaricidal activity against carmine spider mite (airbrush spray). The format is in vivo. The settings on record: Tetranychus cinnabarinus; 100 mg/L, adults, mortality after 72 hrs. The procedure: as §2, §3
Method: Broadbean shoots with two true leaves in pot were taken, the healthy adults of carmine spider mite were inoculated to the leaves. The adults were counted and then sprayed with airbrush at the pressure of 0.7 kg/cm^2 and at dose of 0.5 ml. 3 replicates were set for each treatment. And then they were maintained in standard observation room. Scores were conducted and mortalities were calculated after 72 hrs.

Another assay has as its system cucumber downy mildew. Description: Protectant activity in vivo (whole plant), cucumber downy mildew. To be noted: for pest or weed control at 25 µg/mL / pest or weed control at 50 µg/mL / pest or weed control at 100 µg/mL / pest or weed control at 400 µg/mL: Cucumis sativus, 168 h, read-out: protectant activity against cucumber downy mildew. The procedure:
as §1

For a further assay, the system named is armyworm. Description: Insecticidal activity against armyworm (airbrush spray). The format is in vivo. To be noted: second instar larvae, mortality after 72 h; for pest or weed control at 600 µg/mL: 600 mg/L. The protocol: as §2, §3
The method of spraying by airbrush: The corn leaves were made into plates of 2 cm diameter by use of punch. A test solution (0.5 ml) was sprayed by airbrush at the pressure of 0.7 kg/cm^2 to both sides of every plate. 10 Second instar larvae were put into the petri-dishes after the leaf disc air-dried and 3 replicates were set for each treatment. Then the insects were maintained in observation room (25° C., 60˜70% R.H.). Scores were conducted and mortalities were calculated after 72 h.

Another assay concerns rice blast. The assay can be described thus: microbe, parasite or virus in culture. To be noted: for inhibition at 25 µg/mL: Pyricularia oryzae, 24 h, read-out: inhibition rate against rice blast; for inhibition rate against rice blast: in vitro, 24 hours. The format is cell-based.
In another assay the test system is diamond back moth. The assay can be described thus: Insecticidal activity against diamond back moth (airbrush spray). The format is in vivo. The settings on record: mortality after 72 h, read-out: control of the second instar larvae of diamond back moth; for pest or weed control at 100 µg/mL: 100 mg/L; for pest or weed control at 600 µg/mL: 600 mg/L. The procedure: as §2, §3
The method of spraying by airbrush: The cabbage leaves were made into plates of 2 cm diameter by use of punch. A test solution (0.5 ml) was sprayed by airbrush at the pressure of 0.7 kg/cm^2 to both sides of every plate. 10 Second instar larvae were put into the petri-dishes after the leaf disc air-dried and 3 replicates were set for each treatment. Then the insects were maintained in observation room (25° C., 60˜70% R.H.). Scores were conducted and mortalities were calculated after 72 h.

Where [2] appears, read: Triticum aestivum, 168 h, 400 mg/L, read-out: protectant activity against wheat powdery mildew.
Where [3] appears, read: Triticum aestivum, 168 h, read-out: protectant activity against wheat powdery mildew.

Regarding `CCc1ncnc(NCc2ccc3c(c2)OCO3)c1Cl` [CK1], the pest or weed control at 25 µg/mL with corn rust and in the assay with cucumber downy mildew (25 mg/L) was 0% each time. For the same molecule, the pest or weed control at 100 µg/mL in the assay on corn rust is 20%; in assay [1] it was 30%; in the assay with carmine spider mite it was 39%; in the assay with cucumber downy mildew (100 mg/L), 30%. For the same molecule, the pest or weed control at 400 µg/mL was 70% with corn rust, 0% in the assay with wheat powdery mildew (setting [2]) and 100% with cucumber downy mildew (400 mg/L). Moreover, the pest or weed control at 10 µg/mL in assay [1] is 0%. Besides, the pest or weed control at 600 µg/mL in assay [1] (600 mg/L) was 70%; in the assay on armyworm, 0%. Also, the pest or weed control at 50 µg/mL in the assay on cucumber downy mildew (50 mg/L) is 20%. The inhibition at 25 µg/mL in the assay on rice blast was 0%.

Take `Cc1ncnc(NCc2ccc3c(c2)OCO3)c1Cl` [CK2]: the pest or weed control at 100 µg/mL in the assay with corn rust amounted to 0%; in assay [1] it was 12%; in the assay on wheat powdery mildew (setting [3]), 60%; in the assay with diamond back moth, 5%; in the assay with carmine spider mite, 0%; with cucumber downy mildew (100 mg/L), 60%. Besides, the pest or weed control at 100 µg/mL in the assay on armyworm (100 mg/L) is 0%. Also, the pest or weed control at 400 µg/mL in the assay with corn rust is 75%; in the assay on wheat powdery mildew (setting [2]), 60%; with cucumber downy mildew (400 mg/L), 100%. Also, the pest or weed control at 10 µg/mL in assay [1] worked out at 0%. Moreover, the pest or weed control at 600 µg/mL in assay [1] (600 mg/L) was found to be 20%; with diamond back moth it was 20%; with armyworm, 14%. Further, the pest or weed control at 6.25 µg/mL in the assay with wheat powdery mildew (Triticum aestivum, 168 h, 6.25 mg/L, read-out: protectant activity against wheat powdery mildew) is 0%. Moreover, the results for the pest or weed control at 25 µg/mL with wheat powdery mildew (setting [3]) and in the assay on cucumber downy mildew (25 mg/L) were 40% and 0%, respectively. Besides, in the assay on cucumber downy mildew (50 mg/L), the pest or weed control at 50 µg/mL amounted to 40%. In addition, the inhibition at 25 µg/mL in the assay on rice blast stood at 0%.

For the molecule `COc1ccc(CCNc2ncnc(C(F)F)c2Cl)cc1OC` [CK5], in assay [1], the pest or weed control at 10 µg/mL was found to be 8%. For the same molecule, the pest or weed control at 100 µg/mL in assay [1] was found to be 35%; in the assay with wheat powdery mildew (setting [3]) it was 20%; in the assay on diamond back moth it was 20%; in the assay on carmine spider mite it was 0%. Besides, the pest or weed control at 600 µg/mL in assay [1] (600 mg/L) is 100%; with diamond back moth it was 40%; in the assay with armyworm it was 0%. Also, the pest or weed control at 25 µg/mL in the assay on wheat powdery mildew (setting [3]) worked out at 0%. Besides, the pest or weed control at 400 µg/mL in the assay with wheat powdery mildew (setting [2]) was found to be 100%. Also, the inhibition at 25 µg/mL with rice blast was 0%.

`COc1ccc(CNc2ncnc(C(F)F)c2Cl)cc1OC` [CK6]: the pest or weed control at 600 µg/mL (in assay [1] (600 mg/L); in the assay on armyworm) was 0% in each case. The pest or weed control at 25 µg/mL in the assay on wheat powdery mildew (setting [3]) is 0%. Moreover, the pest or weed control at 100 µg/mL with wheat powdery mildew (setting [3]) worked out at 25%; in the assay with diamond back moth it was 0%; with carmine spider mite it was 0%; in the assay on cucumber downy mildew (100 mg/L), 0%. The values for the pest or weed control at 400 µg/mL in the assay with wheat powdery mildew (setting [2]) and in the assay on cucumber downy mildew (400 mg/L) were 85% and 80%, respectively. Besides, in the assay with rice blast, the inhibition at 25 µg/mL came out at 0%.

Take `FC(F)c1ncnc(NCc2ccc3c(c2)OCO3)c1Cl` [CK9]: the pest or weed control at 6.25 µg/mL with corn rust is 0%. The pest or weed control at 25 µg/mL in the assay on corn rust and in the assay with wheat powdery mildew (setting [3]) was 0% each time. The pest or weed control at 100 µg/mL in the assay on corn rust came out at 25%; with wheat powdery mildew (setting [3]), 10%; in the assay with carmine spider mite, 0%; in the assay on cucumber downy mildew (100 mg/L) it was 0%. For the same molecule, the pest or weed control at 400 µg/mL stood at 80% in the assay with corn rust, 70% in the assay on wheat powdery mildew (setting [2]) and 50% in the assay on cucumber downy mildew (400 mg/L). Further, the pest or weed control at 600 µg/mL in the assay with diamond back moth and with armyworm was 0% throughout. Further, the inhibition at 25 µg/mL in the assay on rice blast was 0%.

Turning to `ClCc1ncnc(NCc2ccc3c(c2)OCO3)c1Cl` [CK12], the pest or weed control at 100 µg/mL (in the assay with corn rust; in assay [1]; with carmine spider mite; in the assay with cucumber downy mildew (100 mg/L)) was 0% throughout. Besides, the pest or weed control at 400 µg/mL came out at 40% with corn rust, 0% in the assay with wheat powdery mildew (setting [2]) and 50% with cucumber downy mildew (400 mg/L). In addition, the pest or weed control at 10 µg/mL in assay [1] turned out to be 0%. Further, the pest or weed control at 600 µg/mL in assay [1] (600 mg/L) was found to be 10%; in the assay with diamond back moth it was 0%; in the assay with armyworm, 0%.

Turning to `Clc1ncnc(NCCc2ccc3c(c2)OCO3)c1Cl` [Compound 2], in the assay on wheat powdery mildew (400 mg/L), the “protectant activity against wheat powdery mildew” value is reported as 100%. Also, the “protectant activity against cucumber downy mildew” value in the assay on cucumber downy mildew (25 mg/L), in the assay with cucumber downy mildew (50 mg/L), in the assay with cucumber downy mildew (100 mg/L) and in the assay on cucumber downy mildew (400 mg/L) was 100% throughout. Moreover, the figures for the “inhibition rate against rice blast” value in the assay with rice blast (2.8 mg/L), in the assay on rice blast (8.3 mg/L) and in the assay with rice blast (25 mg/L) were 80%, 100% and 100%, respectively.

On to `FC(F)(F)c1ncnc(NCCc2ccc3c(c2)OCO3)c1Cl` [Compound 20], for which the “protectant activity against cucumber downy mildew” value in the assay on cucumber downy mildew (25 mg/L) is 20%; with cucumber downy mildew (50 mg/L), 100%; with cucumber downy mildew (100 mg/L), 100%; with cucumber downy mildew (400 mg/L) it was 100%.

In the case of `Cc1ncnc(NCCc2ccc3c(c2)OCO3)c1Cl` [Compound 1451], the figures for the pest or weed control at 400 µg/mL with corn rust and with cucumber downy mildew (400 mg/L) were 80% and 100%, respectively. Also, in assay [1] (600 mg/L), the pest or weed control at 600 µg/mL stood at 100%. Moreover, the pest or weed control at 25 µg/mL in the assay on cucumber downy mildew (25 mg/L) was 0%. Moreover, in the assay on cucumber downy mildew (50 mg/L), the pest or weed control at 50 µg/mL is 0%. In the assay on cucumber downy mildew (100 mg/L), the pest or weed control at 100 µg/mL came to 0%.

As for `Cc1ncnc(NCCc2ccc3c(c2)OCO3)c1Cl` [Compound 1452], the “Insecticidal activity against peach aphid (control)” value in assay [1] (600 mg/L) worked out at 90%. Besides, the pest or weed control at 600 µg/mL with diamond back moth is 80%. Moreover, the “protectant activity against cucumber downy mildew” value with cucumber downy mildew (25 mg/L) is recorded as 0%; in the assay on cucumber downy mildew (50 mg/L), 0%; with cucumber downy mildew (100 mg/L), 0%; in the assay on cucumber downy mildew (400 mg/L), 95%.

Regarding `CCc1ncnc(NCCc2ccc3c(c2)OCO3)c1Cl` [Compound 1465], in the assay on corn rust, the pest or weed control at 6.25 µg/mL came out at 0%, the pest or weed control at 25 µg/mL amounted to 50%, the pest or weed control at 100 µg/mL is 95% and the pest or weed control at 400 µg/mL turned out to be 100%. In assay [1], the pest or weed control at 10 µg/mL was found to be 0% and the pest or weed control at 100 µg/mL was 70%. In addition, the pest or weed control at 600 µg/mL in assay [1] (600 mg/L) was 100%. Besides, in the assay on diamond back moth, the pest or weed control at 600 µg/mL stood at 100%.
